# Measurements taken from ChEMBL document CHEMBL1126877, “Synthesis and anticonvulsant activities of alpha-heterocyclic alpha-acetamido-N-benzylacetamide derivatives” (J Med Chem, 1993).
# Assays:
# [1] = species on record: Mus musculus; assay: Effective dose required for maximal electroshock (MES)-induced seizures in mice.; type: functional
# [2] = species on record: Mus musculus; assay: (§1) Neurologic toxicity determined using horizontal screen test in mice; type: organism-based; conditions: in vivo
# [3] = Neurologic toxicity determined using horizontal screen test in mice in experiment 1; type: organism-based; conditions: mouse, in vivo
# [4] = Neurologic toxicity determined using horizontal screen test in mice in experiment 2; type: organism-based; conditions: mouse, in vivo
# [5] = Protective index (TD50/ED50); type: functional
# [6] = as §1; type: organism-based; conditions: mouse, in vivo
# [7] = Neurologic toxicity determined using rotarod test in mice; type: organism-based; conditions: mouse, in vivo
# [8] = species on record: Mus musculus; assay: Effective dose required for maximal electroshock (MES)-induced seizures in mice in experiment 1; type: functional
# [9] = species on record: Mus musculus; assay: Effective dose required for maximal electroshock (MES)-induced seizures in mice in experiment 2; type: functional
smiles,measurement,setting,value
CC(=O)N[C@H](C(=O)NCc1ccccc1)c1ccco1 (stereo in doubt; (S)-4),ED50,[1],>25 mg/kg
same,TD50,[2],> 200 mg/kg
CC(=O)NC(C(=O)NCc1ccccc1)c1cccs1 (centres undefined),TD50,[3],> 30 mg/kg
same,TD50,[4],< 100 mg/kg
CC(=O)NC(C(=O)NCc1cc[n+]([O-])cc1)c1ccco1 (centres undefined),ED50,"[1]; Mus musculus, read-out: ED50",> 100 mg/kg
CC(=O)NC(C(=O)NCc1ccccc1)c1ccc[nH]1 (centres undefined),TD50,[3],> 30 mg/kg
same,TD50,[4],< 100 mg/kg
CC(=O)NC(C(=O)NCc1ccc[n+]([O-])c1)c1ccco1 (centres undefined),ED50,"[1]; Mus musculus, read-out: ED50",~30 mg/kg
CC(=O)N[C@@H](C(=O)NCc1ccccc1)c1ccco1,ED50,"[1]; Mus musculus, read-out: ED50",3.3 mg/kg
same,PI,[5],7.2
C/C(S)=N/C(/C(S)=N/Cc1ccccc1)c1ccco1 (centres undefined),ED50,"[1]; Mus musculus, read-out: ED50",> 100 mg/kg
CC(=O)NC(C)(C(=O)NCc1ccccc1)c1ccco1 (centres undefined),ED50,"[1]; Mus musculus, read-out: ED50",> 300 mg/kg
CC(=O)N[C@@H](C(=O)NCc1ccc(F)cc1)c1ccco1,ED50,"[1]; Mus musculus, read-out: ED50",3.5 mg/kg
same,PI,[5],4.1
same,TD50,[6],14.4 mg/kg
CC(=O)NC(C(=O)NCc1ccccc1)c1ccsc1 (centres undefined),TD50,[6],> 100 mg/kg
CC(=O)N[C@H](C(=O)NCc1ccccc1)c1ccco1 (stereo in doubt; 4) [listing 1 of 2 here],PI,[5],3.9
CC(=O)NC(C(=O)NCc1ccc(F)cc1)c1ccco1 (centres undefined),PI,[5],11.3
CC(=O)NC(C(=O)NCc1cccnc1)c1ccco1 (centres undefined),ED50,"[1]; Mus musculus, read-out: ED50",~30 mg/kg
CC(=O)NC(C(=O)NCc1ccccc1)c1ncc[nH]1 (centres undefined),ED50,"[1]; Mus musculus, read-out: ED50",> 100 mg/kg
CC(=O)NC(C(=O)NCc1ccncc1)c1ccco1 (centres undefined),ED50,"[1]; Mus musculus, read-out: ED50",> 100 mg/kg
CC(=O)NC(C(=O)NCc1ccccc1)c1ncco1 (centres undefined),ED50,"[1]; Mus musculus, read-out: ED50",10.4 mg/kg
same,PI,[5],3.7
same,TD50,[7],38.6 mg/kg
CC(=O)NC(C(=O)NCc1ccccc1)C1CCCO1 (centres undefined),ED50,"[1]; Mus musculus, read-out: ED50",89.8 mg/kg
CC(=O)NC(C(=O)NCc1ccccc1)n1cccc1 (centres undefined),ED50,"[1]; Mus musculus, read-out: ED50",80.2 mg/kg
CC(=O)NC(C(=O)NCc1ccccc1)n1ccnc1 (centres undefined),ED50,"[1]; Mus musculus, read-out: ED50",> 100 mg/kg
CC(=O)NC(C(=O)NCc1ccccc1)c1nccs1 (centres undefined),ED50,"[1]; Mus musculus, read-out: ED50",12.1 mg/kg
same,PI,[5],5.7
same,TD50,[7],69.1 mg/kg
CC(=O)NC(C(=O)NCc1ccccc1)c1nnn[nH]1 (centres undefined),ED50,[8],> 30 mg/kg
same,ED50,[9],< 100 mg/kg
CC(=O)N[C@H](C(=O)NCc1ccccc1)c1ccco1 (stereo in doubt; 4) [listing 2 of 2 here],ED50,[1],10.3 mg/kg
same,TD50,[2],~ 40 mg kg-1
CC(=O)N[C@H](C(=O)NCc1ccc(C(F)(F)F)cc1)c1ccco1,ED50,"[1]; Mus musculus, read-out: ED50",22.8 mg/kg
CC(=O)NC(C(=O)NCc1ccccc1)c1nc[nH]n1 (centres undefined),ED50,"[1]; Mus musculus, read-out: ED50",> 100 mg/kg
CC(=O)NC(C(=O)NNc1ccccn1)c1ccco1 (centres undefined),ED50,"[1]; Mus musculus, read-out: ED50",> 100 mg/kg
CC(=O)NC(C(=O)NCc1ccccc1)c1c[nH]cn1 (centres undefined),ED50,"[1]; Mus musculus, read-out: ED50",> 100 mg/kg
CC(=O)NC(C(=O)NCc1ccccc1)c1ncon1 (centres undefined),ED50,[8],> 100 mg/kg
same,ED50,[9],< 300 mg/kg
CC(=O)NC(C(=O)NCc1ccccc1)n1cncn1 (centres undefined),ED50,[8],> 30 mg/kg
same,ED50,[9],< 100 mg/kg
C/C(S)=N\C(C(=O)NCc1ccccc1)c1ccco1 (centres undefined),ED50,"[1]; Mus musculus, read-out: ED50",18.4 mg/kg
CC(=O)NC(C(=O)NCc1ccccc1)c1ccco1 (centres undefined),PI,[5],3.9
same,TD50,[6],~40 mg/kg
CC(=O)NC(C(=O)NCc1ccccc1)n1cnnn1 (centres undefined),ED50,"[1]; Mus musculus, read-out: ED50",> 300 mg/kg
CC(=O)NC(C(=O)NCc1ccccc1)n1cccn1 (centres undefined),ED50,"[1]; Mus musculus, read-out: ED50",16.5 mg/kg
CC(=O)N[C@H](C(=O)NCc1ccc(C)cc1)c1ccco1,ED50,"[1]; Mus musculus, read-out: ED50",43.6 mg/kg
CC(=O)NC(C(=O)NCc1ccccc1)c1ccccc1 (centres undefined),TD50,[6],> 40 mg/kg
